Experimental data taken from patent publication US20040258733A1, “Breath Freshening and Oral Cleansing Product Using Salicylaldehyde” (priority 2002, published 2004).
Values after ≈ are worked out from the molar mass of the structure shown.

Legend:
Type in all cases: cell-based
Fusobacterium nucleatum [1] = experiment: MIC study, 96 well microtiter plate serial dilution; details: F. nucleatum, 37° C., 48 hours, turbidity at 660 nm, read-out: MIC (minimum inhibitory concentration)
Protocol: (§1) In vitro tests were conducted with a gram positive supragingival plaque bacterium, Streptococcus mutans. In addition, two subgingival plaque bacteria associated with oral malodor were tested, Porphyromonas gingivalis and Fusobacterium nucleatum. The MIC (Minimum Inhibitory Concentrations) study protocol is as follows. Chlorhexidine was used as a positive control and sterile water was used as a negative control. Salicylaldehyde was suspended in 10% methanol with 3.8% Tween 80. […] 96 well microtiter plates were used for this study. Each well contained […] of bacteria, serially diluted agents and bacterial growth medium. All bacterial cultures were incubated at 37° C. and stationary. Bacterial growth was estimated spectrophotometrically at 660 nm, after 48 hours. The MIC for each test bacteria was defined as the minimum concentration of test compound limiting turbidity to […].

Porphyromonas gingivalis [2] = experiment: as above; details: P. gingivalis, 37° C., 48 hours, turbidity at 660 nm, read-out: MIC (minimum inhibitory concentration)
Protocol: as §1

Fusobacterium nucleatum [3] = experiment: MBC determination, plating on blood agar; details: F. nucleatum, lowest concentration that killed at least 99.9% of initial inoculum, plates 48 hours at 37° C., read-out: MBC (minimum bactericidal concentration)
Protocol: (§2) The MBC (Minimum bactericidal concentrations) were determined using the 96 well microtiter plate serial dilutions as described above for MIC studies. Serial dilution of cultures in wells showing no visible growth were performed and 10 microliters of culture were plated in triplicate on blood agar plates. Viable colonies were scored after incubation of the plates for 48 hours at 37° C. For each test bacterium, the number of CFU/ml were determined in the initial inoculum. The MBC was defined as the lowest concentration of a test compound that killed at least 99.9% of the cells present in the initial inoculum.

Porphyromonas gingivalis [4] = experiment: MBC determination, plating on blood agar; details: P. gingivalis, lowest concentration that killed at least 99.9% of initial inoculum, plates 48 hours at 37° C., read-out: MBC (minimum bactericidal concentration)
Protocol: as §2

Streptococcus mutans = experiment: MIC study, 96 well microtiter plate serial dilution
Protocol: as §1

MIC (Fusobacterium nucleatum [1]) [µg/mL]	MIC (Porphyromonas gingivalis [2]) [µg/mL]	MIC (Streptococcus mutans; Streptococcus mutans, S. mutans, 37° C., 48 hours, turbidity at 660 nm, read-out: MIC (minimum inhibitory concentration)) [µg/mL]	SMILES	MBC (Fusobacterium nucleatum [3]) [µg/mL]	MBC (Porphyromonas gingivalis [4]) [µg/mL]	effectiveness against S. mutans (in words) (Streptococcus mutans)
1.25 (≈ 2.47 µM)	1.25 (≈ 2.47 µM)		[H]/N=C(\N/C(=N/[H])NCCCCCCNC(=N)NC(=N)Nc1ccc(Cl)cc1)Nc1ccc(Cl)cc1 [Cholorhexidine, Chlorhexidine, reference compound]	1.25 (≈ 2.47 µM)	1.25 (≈ 2.47 µM)	
7.8 (≈ 63.9 µM)	125 (≈ 1020 µM)	1000 (≈ 8190 µM)	O=Cc1ccccc1O [salicylaldehyde]	15.6 (≈ 128 µM)	250 (≈ 2050 µM)	not exceptionally effective
